How the values were obtained:
Bioavailability studies = assay type: in vivo, Male mice (C57BL/6 or CD1) or Wistar rats; details: male, plasma; single intravenous dose 1 mg/kg and single oral dose 10 mg/kg; species per compound not given
Experimental: Male mice (C57BL/6 or CD1) or Wistar rats of 8-9 weeks old were used. For each test compound, two groups of 3 animals each were used. One group was administered a single intravenous dose of 1 mg/kg (vehicle 100% DMSO) through the tail vein and the other group was administered a single oral dose of 10 mg/kg through gavage needle. The group that was administered an oral dose was fasted overnight. Blood samples were collected after 0.083, 0.25, 0.5, 1, 2, 4, 6, 8 and 24 hours following intravenous administration, and after 0.25, 0.5, 1, 2, 4, 6, 8 and 24 hours following oral administration. Blood samples were taken from saphenous vein. 0.2% EDTA was used as the anticoagulant. The samples were analyzed by a discovery grade bioanalytical method developed for the estimation of test compound in plasma, using an LC-MS/MS system.

Caco-2 cells = assay: Bidirectional permeability assay (Caco-2 cells); assay type: in vitro ADME; details: 10 μM in FaSSIF buffer, 120 minutes
Experimental: Bidirectional Permeability Assay (Caco-2 Cells)
Caco-2 cells (Evotec) were seeded at a density of 70,000 cells/well in Millicell® 24-well cell culture insert plates and maintained in an incubator (37° C., 5% CO2, 95% RH) for 21 days with media change on alternate days.
Stock solutions (10 mM) of the test compounds, atenolol (low permeability marker), propranolol (high permeability marker) and digoxin (substrate for P-gp transport pathway) were prepared in dimethylsulfoxide (DMSO). An intermediate stock solution (1 mM) was prepared by diluting 10 μL of 10 mM master stock solution with 90 μL of neat DMSO. A working stock solution (10 μM) was prepared by diluting 50 μL of 1 mM with 4950 μL of FaSSIF buffer. Post addition of compounds to the FaSSIF, samples were subjected to sonication for 2 hours, and centrifuged at 4000 RPM for 30 minutes at 37° C. The 4 mL of resultant supernatant was directly used in the assay. The final DMSO concentration in the transport experiments was 1%.
On the day of assay, Caco-2 monolayers were washed twice with transport buffer (HBSS, pH 7.4) and pre-incubated for 30 min (37° C., 5% CO2, 95% RH) in an incubator. The electrical resistance of the monolayers was measured with a Millicell®-ERS system. Monolayers with trans-epithelial electrical resistance (TEER) values greater than 350 ohm·cm^2 were selected for the assay.
The assay was conducted in absorptive direction (A2B) and secretory (B2A) directions. Transport experiments were initiated by addition of transport assay buffer (FaSSIF buffer prepared in HBSS) consisting of compounds to the donor compartment (apical chamber A-B; basolateral chamber B-A) in duplicate (n=2) wells. Drug free HBSS buffer (pH 7.4) containing 1% bovine serum albumin (BSA) was introduced to the receiver (A-B-basolateral; B-A-Apical) compartments. The volumes of apical and basolateral compartments were 0.4 and 0.8 mL, respectively. After adding dosing solution, plates were incubated in an incubator for 120 minutes at 37° C. After 120 minutes, donor and receiver samples were collected and matrix matched (1:1, 30 μL study sample+30 μL blank buffer) with the opposite buffer. Dosing samples matrix matched (1:1, 30 μL study sample+30 μL blank buffer) with the opposite buffer. Samples were processed by adding acetonitrile containing internal standard (60 μL study sample+200 μL acetonitrile containing internal standard-Tolbutamide, 500 ng/mL). Samples were vortexed and centrifuged at 4000 rpm for 10 minutes. The obtained supernatant (100 μL) was diluted with 100 μL of water and transferred to fresh 96 well plates. The concentration of compounds in the samples was analyzed by liquid chromatography tandem mass spectrometry (LC-MS/MS) method using discovery grade bio-analytical method, as applicable.
The mean apparent permeability (Papp, ×10^−6 cm/sec) of the test compounds, atenolol, propranolol and digoxin were calculated as follows:
where dq/dt=rate of transport (rate of transport of compound in the receiver compartment), C0=initial concentration in the donor compartment, A=surface area of the effective filter membrane.

Human LBAT = biological target: T1, Human LBAT (Homo sapiens, UniProt Q14973); assay: LBAT (h/m) assay, human LBAT-overexpressing cells, 3H-taurocholic acid uptake; assay type: cell-based; details: 0.3 μM 3H-taurocholic acid and 7.5 μM cold taurocholic acid, 20 minutes, read-out: hLBAT IC50
T1 construct: expressed in transfected cells; kept under Geneticin selection
T1 sequence (Q14973 1-349): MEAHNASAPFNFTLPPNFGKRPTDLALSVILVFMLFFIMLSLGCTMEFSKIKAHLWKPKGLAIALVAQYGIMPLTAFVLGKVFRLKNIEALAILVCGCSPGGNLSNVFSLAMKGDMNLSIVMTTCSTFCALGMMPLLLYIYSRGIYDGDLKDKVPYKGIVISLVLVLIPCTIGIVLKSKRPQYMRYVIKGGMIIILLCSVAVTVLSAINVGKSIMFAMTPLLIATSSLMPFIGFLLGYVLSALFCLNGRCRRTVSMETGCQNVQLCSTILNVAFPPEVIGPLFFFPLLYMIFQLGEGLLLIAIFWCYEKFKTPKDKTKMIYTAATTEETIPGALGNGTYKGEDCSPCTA
Experimental: LBAT (h/m) Assay Protocol
20,000 cells (Human or Mouse LBAT-overexpressing cells) were seeded in 96-wells plate (Corning CLS3809) in 100 μL MEM-alpha medium (Gibco 12571-063) supplemented with 10% FBS (Gibco 10438026) containing Geneticin (Gibco 10131-027) (1 mg/mL) and incubated at 37° C. in 5% CO2 for 24 hours. After incubation, media was decanted from the wells and cells were washed two times with 300 μL of basal MEM-alpha medium (FBS-free). After decanting basal MEM-alpha medium each time, plates were tapped against paper towel to ensure maximum removal of residual media.
For human LBAT, incubation mix was prepared by adding test inhibitor dilutions (3-fold serial dilution in DMSO (Sigma D2650), 10 points) in MEM-alpha (without FBS) containing 0.3 μM 3H-taurocholic acid (ARC ART-1368) and 7.5 μM cold taurocholic acid (Sigma T4009) (maintaining 0.2% final DMSO concentration). For mouse LBAT, incubation mix was prepared by adding test inhibitor dilutions (3-fold serial dilution in DMSO, 10 points) in MEM-alpha (without FBS) containing 0.3 μM 3H-taurocholic acid and 25 μM cold taurocholic acid maintaining 0.2% final DMSO concentration).
50 μL of incubation mix containing test inhibitors was then added to the wells (in duplicate) and the plates were incubated for 20 minutes in a CO2 incubator at 37° C. After incubation, the reaction was stopped by keeping the plates on ice water mix for 2-3 minutes and then the incubation mix was aspirated completely from the wells. The wells were washed two times with 250 μL of chilled unlabelled 1 mM taurocholic acid dissolved in HEPES (Gibco 15630080)-buffered (10 mM) HBSS (Gibco 14175079) (pH 7.4). The plates were tapped against a paper towel after every wash to ensure maximum removal of blocking buffer.
100 μL of MicroScint-20 (PerkinElmer 6013621) was added to the wells and kept overnight at room temperature before reading the plates in TopCount NXT™ Microplate Scintillation and Luminescence Counter from PerkinElmer under 3H Test protocol (set at 120 seconds reading time per well, with normal plate orientation).
Preparation of Test Compound Dilutions
All test compounds were provided in powder form at room temperature. 10 mM DMSO stocks of the test compounds were prepared, aliquoted and stored at −20° C. From the 10 mM DMSO stock of the compounds, a 3-fold serial dilution in DMSO was prepared to get a total of 10 dilutions of the test compounds. 0.5 μL of this dilution in DMSO was added to 250 μL of FBS-free basal media containing 3H-taurocholic acid and cold taurocholic acid to prepare the incubation mixture.

bioavailability (Bioavailability studies): 100%
Permeability (Caco-2) Papp A2B (Caco-2 cells; absorptive direction (A2B)): 12.2 ×10⁻⁶ cm/s
Permeability (Caco-2) Papp B2A (Caco-2 cells; secretory direction (B2A)): 7.3 ×10⁻⁶ cm/s
IC50 (Human LBAT): 3 nM
Structure (SMILES): CCCCC1CN(c2ccc(F)cc2)c2cc(SC)c(OCC(C)(C)C(=O)O)cc2S(=O)(=O)N1C (single isomer, unassigned) [14, enantiomer 2]

Source: patent publication US12365658B2, “Benzothia(di)azepine compounds and their use as bile acid modulators” (Albireo AB, priority 2021, dated 2025)
